Measurements: US20200129450A1, “COMPOSITION COMPRISING OSMUNDACETONE OR PHARMACEUTICALLY ACCEPTABLE SALT THEREOF FOR PREVENTING OR TREATING BONE DISEASE” (KORPHARM CO., LTD., priority 2016, published 2020)
Entries after “also recorded” stand apart in the source; their conditions may differ.

Legend:
cancer cell lines = assay: MTT assay cytotoxicity, cancer cell lines (summary); type: cell-based; details: summary range
Description: (§1) MTT assay was as follows.
(§2) Cells were incubated at 1×10^3 cells/well in a 96-well plate containing DMEM with 10% fetal bovine serum (FBS) at 5% CO2 and 37° C., and then osmundacetone was added to the cell medium, followed by incubation for 24 hours. Thereafter, 100 μL of MTT (0.5 mg/ml PBS) was administered, followed by incubation for 2 hours. Thereafter, the medium was removed from each well, and 100 μL of DMSO was added. After incubation for 10 minutes, the absorbance was measured using a microplate reader (SPCTRA MAX 340PC, Molecular Devices, USA) at 570 nm. The absorbance is an indicator showing the number of living cells, and calculated by the following equation.
(§3) Cell proliferation (%)=OD550(sample)/OD550(control)

[1] = as above; type: cell-based; details: human cancer cell lines (AGS, PC3) compared with human normal cell lines (HaCaT, ADMSC); read-out: cancer selectivity index in cell cytotoxicity
Description: as §1, §2, §3

[2] = tested on: ALP activity of MC3T3-E1 osteoblasts in co-incubation; assay: Co-culture of osteoclasts and osteoblasts: ALP activity; type: cell-based, mouse; details: 10 μM, vs non-treated
Description: 1×10^5 C57BL/6 mouse bone marrow mononuclear cells per well of a 48-well plate were prepared in the same manner as described above, and co-incubated together with 1.5×10^4 MC3T3-E1 murine osteoblasts, using 500 μL of α-MEM containing 10% FBS and 1% antibiotic (100 U/mL penicillin G and […] streptomycin) in the conditions of 37° C. and 5% CO2 while the medium was exchanged every three days.
Positive control cells were co-incubated together with osteoclast differentiation factors M-CSF (60 ng/mL) and RANKL (150 ng/mL), and osteoblast differentiation factors ascorbic acid (50 μg/mL) and 10 mM R-glycerophosphate.
Negative control cells were incubated by adding only M-CSF as a differentiation factor. In order to examine effects of osmundacetone on the differentiation of osteoclasts and osteoblasts, osmundacetone were administered at a final concentration of 10 μM into the positive control cells on day 1 after the cells were dispensed on the plate.
ALP activity was assessed using Quantichrom ALP Assay Kit (Bioassay Systems, Hayward, Calif., USA) according to manufacturer's instructions.
[…] The % activation of ALP activity was shown by comparing ALP activity of cells treated with an experimental compound and ALP activity of the non-treated control cells.
In order to investigate whether or not osmundacetone has ability to inhibit osteoclast differentiation and activate osteoblast differentiation simultaneously, bone marrow mononuclear cells collected from C57BL/6 mice and MC3T3-E1 cells as osteoblast precursor cells were co-incubated in a 48-well plate at cell concentrations of 1×10^5 bone marrow cells and […] MC3T3-E1 cells per well. The bone marrow monocyte/macrophage lineage cells in the co-incubated bone marrow cells and osteoblast precursor cells differentiated into mature multinuclear osteoclasts in the presence of M-CSF and RANKL within 6-7 days.

[3] = tested on: osteoclasts differentiated from mouse bone marrow cells; assay: TRAP assay, osteoclast proliferation and differentiation inhibitory activity; type: cell-based; details: for IC50: tested at 1, 4, 7 and 10 μM, TRAP-positive multinucleated cells
Description: Bone marrow cells were collected from the femur and shin bones of 5-8 week old male C57BL/6 mice. Muscles were removed from the bones, and stored in cold phosphate buffered saline (PBS; # CAP08-050, GenDEPOT, Katy, Tex., USA).
Both ends of each bone were cut, and the bone marrow was flushed with a flushing medium (serum-free α-MEM, 2 mM ethylenediaminetetraacetic acid) kept cool, using a 25 G needle.
Bone marrow cells were collected by centrifugation at 3,000 rpm for 3 min using Labogene 1248R (Labogene, Lynge, Denmark), and then resuspended in a wash medium. Thereafter, 8 mL of the collected bone marrow cells were overlaid on 6 mL of a lymphocyte isolation medium (LSM; #50494, MP Biomedicals, Santa Ana, Calif., USA), followed by centrifugation at 1,600 rpm for 20 minutes, thereby isolating mononuclear cells.
The mononuclear cell bands were collected from the media interface, and incubated using complete α-MEM (containing 10% fatal bovine serum (FBS; Capricorn Scientific, Ebsdorfergrund, Germany) and 1% (v/v) antibiotic (including 100 U/mL penicillin G and […] streptomycin)) in the conditions of 37° C. and 5% CO2 while the medium was exchanged every three days.
In order to promote the differentiation of osteoclasts, 1×10^5 cells were incubated in 0.5 mL of the medium per well in a 48-well plate, in the presence of osteoclast differentiation factors, M-CSF (60 ng/mL) and RANKL (150 ng/mL), purchased from PeproTec (Seoul, Korea). As known, macrophages/monocytes derived from one bone marrow differentiated into mature multinucleated osteoclasts after 6 days (Gurt et al., 2015).
The tibia and femur of 6-8 week old male C57BL/6 mice were aseptically resected, and bone marrow cells were aseptically collected using a syringe (21 G, Korea Green Cross). The bone marrow cells were floated in 500 μL of α-MEM medium (Gibco BRL Co.) containing sodium bicarbonate (2.0 g/L), streptomycin (100 mg/L), and penicillin ([…]), dispensed in a 48-well plate, and assayed in triplicate. Mononuclear cells as precursor cells of osteoclasts were treated with RANKL and M-CSF as differentiation promoting factors, and thus differentiated into osteoclasts within 5-7 days.
2-1) Sample preparation: The hot-water extract, EA extract, or fraction of Osmunda japonica were prepared by the same methods as in section 1 of <Example 1>. The EA-2 extract was dissolved in a minimum amount of DMSO, and then diluted with water to 70% of the original volume of the hot-water extract assuming that the yield of EA-2 extraction was approximately 70%. 2-2) Sample administration: The sample was continuously administered to a medium at 1:20 (v/v; 25 μL of the sample per 500 μL of the medium) from day 1 of incubation of bone marrow cells, while the medium was exchanged every 2-3 days. 2-3) Measurement of osteoclast differentiation Osteoclasts were defined by TRAP-positive multinucleated cells stained with TRAP. As for TRAP stain solution, 5 mg of naphthol AS-MS phosphate (Sigma N-4875) as a base and 25 mg of Fast Red Violet LB salt as a color developing reagent were dissolved in about 0.5 mL of N,N-dimethylformamide, and then mixed with 0.1N NaHCO3 buffer solution (50 mL) containing 50 mM tartaric acid. The reaction reagent was stored in a refrigerator before use.
After bone marrow cells were incubated in a medium containing differentiation promoting factors for 7 days, the medium was removed, and the cells were washed with PBS, and then immobilized with PBS containing 10% formalin for 2-5 minutes. Thereafter, the cells were immobilized with a 1:1 mixture solution of ethanol and acetone, followed by drying. The immobilized cells were treated with the TRAP stain solution for 15 minutes, and washed with PBS, and then the degree of cell staining was observed by a microscope.
In the microscope field of view, cells having two or more nuclei in the TRAP-positive cells were determined to be osteoclasts, and the number of cells was measured. […]

SMILES: CC(=O)/C=C/c1ccc(O)c(O)c1 [Osmundacetone, (3E)-4-(3,4-dihydroxyphenyl)-3-buten-2-one]
- LD50 for several cancer cell lines (cancer cell lines): 50 to 70 µM
- selectivity ratio at 24 h [1]: 45 to 60
- % activation of ALP activity in co-incubation ([2]; day 7 of co-incubation): 104%
- % activation of ALP activity in co-incubation ([2]; day 14 of co-incubation): 111%
- % activation of ALP activity in co-incubation ([2]; day 21 of co-incubation): 95%
- formation of giant osteoclasts, number compared with the positive control group ([3]; 1 μM): smaller compared with the positive control group
- formation of giant osteoclasts / differentiation of bone marrow mononuclear cells into osteoclasts ([3]; 10 μM osmundacetone (printed 10M)): significantly inhibited; also recorded: almost completely inhibited
- IC50 ([3]; Mus musculus, Osteoclast): ≤ 8 µM
- inhibition at 7 µM ([3]; Mus musculus, Osteoclast, 7 μM, read-out: inhibition of differentiation of bone marrow mononuclear cells into osteoclasts): 3 to 40%
- inhibition at 10 µM ([3]; Mus musculus, Osteoclast, 10 μM, read-out: inhibition of differentiation of bone marrow mononuclear cells into osteoclasts): ≥ 95%
- proliferation of osteoclast precursor cells ([3]; osmundacetone 10M as printed): significantly inhibited
- IC50 [3]: 8 µM
